Experimental data taken from patent US10729688B2, “Hepatitis B antiviral agents” (Enanta Pharmaceuticals, Inc., priority 2018, dated 2020).

System: HBV
Assay: HepAD38 antiviral assay: reduction of viral product accumulation
Type: cell-based
Conditions: Hepatitis B virus, 120 h; HepAD38 cells, tetracycline removed; harvest five days after compound addition; viral product (virion DNA by qPCR, or HBsAg/HBeAg by ELISA) reduced by 50% relative to no drug controls
Description: (§1) Methods: HepAD38 cells were maintained as previously reported (Ladner et al, Antimicrob. Agents Chemother. 1997, 4, 1715). Briefly, cells were passaged upon attaining confluency in DMEM/F12 media in the presence of 10% FBS, Penn/Strep, 250 μg/mL G418, and 1 ug/ml tetracycline. Compounds were screened by first washing cells three times with PBS to remove tetracycline, and plating in 96 well plates at 35,000 cells/well. Compounds dissolved in DMSO were then diluted 1:200 into wells containing cells. Five days after compound addition, material was harvested for analysis. For an extended 8 day analysis, cells were plated and treated as described above, but media and compound were refreshed on day 2 and day 5 post initial treatment.
On harvest day, virion DNA was obtained by lysing with Sidestep Lysis and Stabilization Buffer and then quantified via quantitative real time PCR. Commercially available ELISA kits were used to quantitate the viral proteins HBsAg (Alpco) or HbeAg (US Biological) by following the manufacturer's recommended protocol after diluting samples to match the linear range of their respective assays. Irrespective of readout, compound concentrations that reduce viral product accumulation in the cell lysates or supernatants by 50% relative to no drug controls (EC50) are reported; EC50 ranges are as follows: A<0.1 μM; B 0.1-0.2 μM; C>0.2 μM.
With `O=C(Nc1cc(F)c(F)c(F)c1)N1Cc2c(-c3ccc(F)cc3)cnn2[C@H]2CCC[C@H]21` [Example 1] the EC50 was over 200 nM.
With `O=C(Nc1ccc(F)c(F)c1)N1Cc2c(-c3ccc(F)cc3)cnn2[C@H]2CCC[C@H]21` [Example 2] the EC50 was over 200 nM.
`O=C(Nc1ccc(F)c(Cl)c1)N1Cc2c(-c3ccc(F)cc3)cnn2[C@H]2CCC[C@H]21` [Example 3] showed an EC50 of over 200 nM.
`O=C(Nc1cc(F)c(F)c(F)c1)N1Cc2c(N3CCCS3(=O)=O)cnn2[C@H]2CCC[C@H]21` [Example 4] gave an EC50 of under 100 nM.
`O=C(Nc1ccc(F)c(F)c1)N1Cc2c(N3CCCS3(=O)=O)cnn2[C@H]2CCC[C@H]21` [Example 5] gave an EC50 of 100 to 200 nM.
For `O=C(Nc1ccc(F)c(Cl)c1)N1Cc2c(N3CCCS3(=O)=O)cnn2[C@H]2CCC[C@H]21` [Example 6], the EC50 was under 100 nM.
Molecule `O=C(Nc1cc(F)c(F)c(F)c1)N1Cc2c(-c3ccc(F)cc3)cnn2[C@@H]2CCC[C@@H]21` [Example 7] has an EC50 of 100 to 200 nM.
Molecule `O=C(Nc1ccc(F)c(F)c1)N1Cc2c(-c3ccc(F)cc3)cnn2[C@@H]2CCC[C@@H]21` [Example 8] has an EC50 of under 100 nM.
With `O=C(Nc1ccc(F)c(Cl)c1)N1Cc2c(-c3ccc(F)cc3)cnn2[C@@H]2CCC[C@@H]21` [Example 9] the EC50 was over 200 nM.
For `O=C(Nc1cc(F)c(F)c(F)c1)N1Cc2c(N3CCCS3(=O)=O)cnn2[C@@H]2CCC[C@@H]21` [Example 10], the EC50 was under 100 nM.
`O=C(Nc1ccc(F)c(F)c1)N1Cc2c(N3CCCS3(=O)=O)cnn2[C@@H]2CCC[C@@H]21` [Example 11] gave an EC50 of under 100 nM.
`O=C(Nc1ccc(F)c(Cl)c1)N1Cc2c(N3CCCS3(=O)=O)cnn2[C@@H]2CCC[C@@H]21` [Example 12] showed an EC50 of under 100 nM.
With `O=C(Nc1cc(F)c(F)c(F)c1)N1Cc2c(-c3cscn3)cnn2[C@@H]2CCC[C@@H]21` [Example 13] the EC50 was under 100 nM.
Molecule `O=C(Nc1ccc(F)c(F)c1)N1Cc2c(-c3cscn3)cnn2[C@@H]2CCC[C@@H]21` [Example 14] has an EC50 of under 100 nM.
With `O=C(Nc1ccc(F)c(F)c1)N1Cc2c(N3CCCS3(=O)=O)cnn2CC12CC2` [Example 16] the EC50 was over 200 nM.
Work on `O=C1OCCN1c1cnn2c1CN(C(=O)Nc1cc(F)c(F)c(F)c1)[C@H]1CCC[C@H]12` [Example 36] yielded an EC50 of over 200 nM.
Molecule `O=C1CCCN1c1cnn2c1CN(C(=O)Nc1cc(F)c(F)c(F)c1)[C@H]1CCC[C@H]12` [Example 37] has an EC50 of under 100 nM.
In the case of `C[C@H]1COC(=O)N1c1cnn2c1CN(C(=O)Nc1cc(F)c(F)c(F)c1)[C@H]1CCC[C@H]12` [Example 38], the EC50 is reported as 100 to 200 nM.
Work on `O=C(Nc1cc(F)c(F)c(F)c1)N1Cc2c(N3C(=O)O[C@@H]4CCC[C@@H]43)cnn2[C@@H]2CCC[C@@H]21` [Example 39] yielded an EC50 of under 100 nM.
`O=C1OC(c2ccccc2)CN1c1cnn2c1CN(C(=O)Nc1cc(F)c(F)c(F)c1)[C@H]1CCC[C@H]12` (some centres unmarked) [Example 40] gave an EC50 of under 100 nM.
With `COC(=O)Nc1cnn2c1CN(C(=O)Nc1cc(F)c(F)c(F)c1)[C@H]1CCC[C@H]12` [Example 41] the EC50 was over 200 nM.
With `CCS(=O)(=O)Nc1cnn2c1CN(C(=O)Nc1cc(F)c(F)c(F)c1)[C@H]1CCC[C@H]12` [Example 43] the EC50 was over 200 nM.
With `C[C@@H]1CN(c2cnn3c2CN(C(=O)Nc2cc(F)c(F)c(F)c2)[C@H]2CCC[C@H]23)C(=O)O1` [Example 44] the EC50 was under 100 nM.
`O=C1OC(c2ccccn2)CN1c1cnn2c1CN(C(=O)Nc1cc(F)c(F)c(F)c1)[C@H]1CCC[C@H]12` (some centres unmarked) [Example 45] showed an EC50 of under 100 nM.
`O=C1OC(C2CCCC2)CN1c1cnn2c1CN(C(=O)Nc1cc(F)c(F)c(F)c1)[C@H]1CCC[C@H]12` (some centres unmarked) [Example 46] gave an EC50 of over 200 nM.
`CCC(=O)Oc1cnn2c1CN(C(=O)Nc1cc(F)c(F)c(F)c1)[C@H]1CCC[C@H]12` [Example 47] showed an EC50 of over 200 nM.
Molecule `O=C(Nc1cc(F)c(F)c(F)c1)N1Cc2c(N3C(=O)C[C@@H]4CCC[C@@H]43)cnn2[C@@H]2CCC[C@@H]21` [Example 48] has an EC50 of under 100 nM.
With `O=C(Nc1cc(F)c(F)c(F)c1)N1Cc2c(N3C(=O)C[C@H]4CCC[C@H]43)cnn2[C@@H]2CCC[C@@H]21` [Example 49] the EC50 was 100 to 200 nM.
`O=C1CC2(CC2)CN1c1cnn2c1CN(C(=O)Nc1cc(F)c(F)c(F)c1)[C@H]1CCC[C@H]12` [Example 50] gave an EC50 of under 100 nM.
With `O=C(Nc1cc(F)c(F)c(F)c1)N1Cc2c(N3C(=O)OC[C@@H]3c3ccccc3)cnn2[C@@H]2CCC[C@@H]21` [Example 52] the EC50 was over 200 nM.
`O=C(Nc1cc(F)c(F)c(F)c1)N1Cc2c(N3C(=O)O[C@H]4CCCC[C@@H]43)cnn2[C@@H]2CCC[C@@H]21` [Example 54] gave an EC50 of under 100 nM.
For `O=C1OC2(CC2)CN1c1cnn2c1CN(C(=O)Nc1cc(F)c(F)c(F)c1)[C@H]1CCC[C@H]12` [Example 55], the EC50 was under 100 nM.
`O=C(Nc1cc(F)c(F)c(F)c1)N1Cc2c(N3C(=O)OC[C@@H]3C3CCCC3)cnn2[C@@H]2CCC[C@@H]21` [Example 56] showed an EC50 of 100 to 200 nM.
Molecule `O=C1OC2(CCCC2)CN1c1cnn2c1CN(C(=O)Nc1cc(F)c(F)c(F)c1)[C@H]1CCC[C@H]12` [Example 57] has an EC50 of under 100 nM.
Work on `O=C(Nc1cc(F)c(F)c(F)c1)N1Cc2c(N3C(=O)OC[C@@H]3C3CC3)cnn2[C@@H]2CCC[C@@H]21` [Example 58] yielded an EC50 of 100 to 200 nM.
`O=C(Nc1cc(F)c(F)c(F)c1)N1Cc2c(N3C(=O)OC[C@H]3C3CC3)cnn2[C@@H]2CCC[C@@H]21` [Example 59] showed an EC50 of under 100 nM.
With `O=C(Nc1cc(F)c(F)c(F)c1)N1Cc2c(N3C(=O)OCC34CC4)cnn2[C@@H]2CCC[C@@H]21` [Example 61] the EC50 was 100 to 200 nM.
Molecule `CCS(=O)(=O)N(C)c1cnn2c1CN(C(=O)Nc1cc(F)c(F)c(F)c1)[C@H]1CCC[C@H]12` [Example 62] has an EC50 of over 200 nM.
Molecule `O=C(Nc1cc(F)c(F)c(F)c1)N1Cc2c(N3CCCS3(=O)=O)cnn2[C@@H]2COC[C@@H]21` [Example 63] has an EC50 of over 200 nM.
`O=C(Nc1cc(F)c(F)c(F)c1)N1Cc2c(N3C(=O)OC[C@@H]3Cc3ccccc3)cnn2[C@@H]2CCC[C@@H]21` [Example 64] showed an EC50 of 100 to 200 nM.
Molecule `CC(C)[C@@H]1N(c2cnn3c2CN(C(=O)Nc2cc(F)c(F)c(F)c2)[C@H]2CCC[C@H]23)C(=O)OC1(C)C` [Example 65] has an EC50 of under 100 nM.
In the case of `O=C1OCCCN1c1cnn2c1CN(C(=O)Nc1cc(F)c(F)c(F)c1)[C@H]1CCC[C@H]12` [Example 66], the EC50 is reported as 100 to 200 nM.
`CC1(C)CCN(c2cnn3c2CN(C(=O)Nc2cc(F)c(F)c(F)c2)[C@H]2CCC[C@H]23)C(=O)O1` [Example 67] showed an EC50 of under 100 nM.
Molecule `CC(C)C[C@H]1COC(=O)N1c1cnn2c1CN(C(=O)Nc1cc(F)c(F)c(F)c1)[C@H]1CCC[C@H]12` [Example 68] has an EC50 of 100 to 200 nM.
`CC(C)C[C@@H]1N(c2cnn3c2CN(C(=O)Nc2cc(F)c(F)c(F)c2)[C@H]2CCC[C@H]23)C(=O)OC1(C)C` [Example 69] showed an EC50 of over 200 nM.
With `CC1(C)OC(=O)N(c2cnn3c2CN(C(=O)Nc2cc(F)c(F)c(F)c2)[C@H]2CCC[C@H]23)[C@H]1Cc1ccccc1` [Example 70] the EC50 was under 100 nM.
For `O=C(Nc1cc(F)c(F)c(F)c1)N1Cc2c(N3CCCS3(=O)=O)cnn2C[C@@H]1c1ccccc1` [Example 71], the EC50 was under 100 nM.
With `O=C(Nc1cc(F)c(F)c(F)c1)N1Cc2c(N3CCCS3(=O)=O)cnn2C[C@@H]1c1ncc[nH]1` [Example 74] the EC50 was over 200 nM.
Work on `O=C(Nc1cc(F)c(F)c(F)c1)N1Cc2c(N3CCCS3(=O)=O)cnn2C[C@@H]1c1cnco1` [Example 75] yielded an EC50 of 100 to 200 nM.
`O=C(Nc1cc(F)c(F)c(F)c1)N1Cc2c(N3CCCS3(=O)=O)cnn2C[C@@H]1c1ccn[nH]1` [Example 76] gave an EC50 of over 200 nM.

System: not listed separately
Assay: Compound toxicity, ATPLite total ATP levels
Type: cell-based
Conditions: human, HepAD38 cells; 15,000 cells/well; three days after compound addition; total ATP levels reduced by 50% relative to no drug controls
Description: as §1
Compound toxicity was evaluated by seeding cells at 15,000 cells/well and treating with compound as described above.
Molecule `O=C(Nc1cc(F)c(F)c(F)c1)N1Cc2c(N3CCCS3(=O)=O)cnn2[C@@H]2CCC[C@@H]21` [Example 10] has a CC50 at 3 days of over 25 µM.
For `O=C(Nc1ccc(F)c(F)c1)N1Cc2c(N3CCCS3(=O)=O)cnn2[C@@H]2CCC[C@@H]21` [Example 11], the CC50 at 3 days was over 25 µM.
`O=C(Nc1ccc(F)c(Cl)c1)N1Cc2c(N3CCCS3(=O)=O)cnn2[C@@H]2CCC[C@@H]21` [Example 12] gave a CC50 at 3 days of over 25 µM.
